Reference: patent publication US20110086759A1, “CHEMICAL COMPOUNDS” (SYNGENTA CROP PROTECTION, INC., priority 2007, published 2011)

Tests used:
Assay type in all cases: in vivo
[1] = tested on: Amaranthus retoflexus (AMARE); experiment: Pre-emergence biological efficacy, glasshouse pot test; details: Amaranthus retroflexus, 312 h; pre-emergence, rate 1,000 g/ha, evaluated after 13 days (100=total damage to plant; 0=no damage); read-out: Percentage damage caused to weed species, AMARE
Procedure, shortened: (§1)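 Damage was rated on a 0–100 scale 13 days after treatment, with plants kept at 24/16° C, 14 h light and 65% humidity. The pre-emergence spray, at 1000 or 250 g/ha in acetone/water 50:50 with 0.5% Tween 20, was applied one day after sowing.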

Solanum nigrum (SOLNI) [2] = experiment: as above; details: 312 h, pre-emergence, rate 1,000 g/ha, evaluated after 13 days (100=total damage to plant; 0=no damage), read-out: Percentage damage caused to weed species, SOLNI
Procedure, shortened: as §1

Setaria faberi (SETFA) [3] = experiment: as above; details: 312 h, pre-emergence, rate 1,000 g/ha, evaluated after 13 days (100=total damage to plant; 0=no damage), read-out: Percentage damage caused to weed species, SETFA
Procedure, shortened: as §1

[4] = tested on: Alopecurus myosuroides (ALOMY); experiment: as above; details: 312 h, pre-emergence, rate 1,000 g/ha, evaluated after 13 days (100=total damage to plant; 0=no damage), read-out: Percentage damage caused to weed species, ALOMY
Procedure, shortened: as §1

[5] = tested on: Echinochloa crus-galli (ECHCG); experiment: as above; details: 312 h, pre-emergence, rate 1,000 g/ha, evaluated after 13 days (100=total damage to plant; 0=no damage), read-out: Percentage damage caused to weed species, ECHCG
Procedure, shortened: as §1

[6] = tested on: Ipomea hederaceae (IPOHE); experiment: as above; details: Ipomoea hederacea, 312 h; pre-emergence, rate 1,000 g/ha, evaluated after 13 days (100=total damage to plant; 0=no damage); read-out: Percentage damage caused to weed species, IPOHE
Procedure, shortened: as §1

[7] = tested on: Amaranthus retoflexus (AMARE); experiment: Post-emergence biological efficacy, glasshouse pot test; details: Amaranthus retroflexus, 312 h; Rate 1,000 g/ha; post-emergence spray; evaluated after 13 days (100=total damage to plant; 0=no damage to plant); read-out: Percentage damage caused to weed species, post-emergence, AMARE
Procedure, shortened: (§2)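 Scored 13 days after spraying on a 0 (no damage) to 100 (total damage) scale. Treatment was a post-emergence spray at 1000 or 250 g/ha, from acetone/water 50:50 plus 0.5% Tween 20, onto 8-day-old plants in soil pots. Growth at 24/16° C, 14 h photoperiod, 65% humidity, watered twice daily.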

Solanum nigrum (SOLNI) [8] = experiment: as above; details: 312 h, Rate 1,000 g/ha, post-emergence spray, evaluated after 13 days (100=total damage to plant; 0=no damage to plant), read-out: Percentage damage caused to weed species, post-emergence, SOLNI
Procedure, shortened: as §2

Setaria faberi (SETFA) [9] = experiment: as above; details: 312 h, Rate 1,000 g/ha, post-emergence spray, evaluated after 13 days (100=total damage to plant; 0=no damage to plant), read-out: Percentage damage caused to weed species, post-emergence, SETFA
Procedure, shortened: as §2

[10] = tested on: Alopecurus myosuroides (ALOMY); experiment: as above; details: 312 h, Rate 1,000 g/ha, post-emergence spray, evaluated after 13 days (100=total damage to plant; 0=no damage to plant), read-out: Percentage damage caused to weed species, post-emergence, ALOMY
Procedure, shortened: as §2

[11] = tested on: Echinochloa crus-galli (ECHCG); experiment: as above; details: 312 h, Rate 1,000 g/ha, post-emergence spray, evaluated after 13 days (100=total damage to plant; 0=no damage to plant), read-out: Percentage damage caused to weed species, post-emergence, ECHCG
Procedure, shortened: as §2

[12] = tested on: Ipomea hederaceae (IPOHE); experiment: as above; details: Ipomoea hederacea, 312 h; Rate 1,000 g/ha; post-emergence spray; evaluated after 13 days (100=total damage to plant; 0=no damage to plant); read-out: Percentage damage caused to weed species, post-emergence, IPOHE
Procedure, shortened: as §2

SMILES: COC(=O)c1nc(-c2ccc(C)cc2)nc(NCc2ccco2)c1Cl [Compound 237-48, 5-Chloro-4-(furan-2-ylmethylamino)-6-methoxycarbonyl-2-(4-methylphenyl)-pyrimidine]
- pest or weed control at 1000 g/ha [1]: 100%
- pest or weed control at 1000 g/ha (Solanum nigrum (SOLNI) [2]): 0%
- pest or weed control at 1000 g/ha (Setaria faberi (SETFA) [3]): 0%
- pest or weed control at 1000 g/ha [4]: 20%
- pest or weed control at 1000 g/ha [5]: 20%
- pest or weed control at 1000 g/ha [6]: 30%
- pest or weed control at 1000 g/ha [7]: 100%
- pest or weed control at 1000 g/ha (Solanum nigrum (SOLNI) [8]): 60%
- pest or weed control at 1000 g/ha (Setaria faberi (SETFA) [9]): 0%
- pest or weed control at 1000 g/ha [10]: 0%
- pest or weed control at 1000 g/ha [11]: 0%
- pest or weed control at 1000 g/ha [12]: 70%

SMILES: COC(=O)c1nc(-c2ccc(C)cc2Cl)nc(NCc2ccco2)c1Cl [Compound 238-48, 5-Chloro-2-(2-chloro-4-methylphenyl)-4-(furan-2-yl-methyl-amino)-6-methoxy-carbonylpyrimidine]
- pest or weed control at 1000 g/ha [1]: 100%
- pest or weed control at 1000 g/ha (Solanum nigrum (SOLNI) [2]): 0%
- pest or weed control at 1000 g/ha (Setaria faberi (SETFA) [3]): 10%
- pest or weed control at 1000 g/ha [4]: 20%
- pest or weed control at 1000 g/ha [5]: 0%
- pest or weed control at 1000 g/ha [6]: 0%
- pest or weed control at 1000 g/ha [7]: 100%
- pest or weed control at 1000 g/ha (Solanum nigrum (SOLNI) [8]): 30%
- pest or weed control at 1000 g/ha (Setaria faberi (SETFA) [9]): 0%
- pest or weed control at 1000 g/ha [10]: 10%
- pest or weed control at 1000 g/ha [11]: 0%
- pest or weed control at 1000 g/ha [12]: 60%

SMILES: COC(=O)c1nc(-c2ccc(C)c(Cl)c2)nc(NCc2ccco2)c1Cl [Compound 239-48, 5-Chloro-2-(3-chloro-4-methylphenyl)-4-(furan-2-yl-methyl-amino)-6-methoxy-carbonylpyrimidine]
- pest or weed control at 1000 g/ha [1]: 0%
- pest or weed control at 1000 g/ha (Solanum nigrum (SOLNI) [2]): 0%
- pest or weed control at 1000 g/ha (Setaria faberi (SETFA) [3]): 0%
- pest or weed control at 1000 g/ha [4]: 0%
- pest or weed control at 1000 g/ha [5]: 0%
- pest or weed control at 1000 g/ha [6]: 0%
- pest or weed control at 1000 g/ha [7]: 20%
- pest or weed control at 1000 g/ha (Solanum nigrum (SOLNI) [8]): 30%
- pest or weed control at 1000 g/ha (Setaria faberi (SETFA) [9]): 0%
- pest or weed control at 1000 g/ha [10]: 0%
- pest or weed control at 1000 g/ha [11]: 0%
- pest or weed control at 1000 g/ha [12]: 30%

SMILES: COC(=O)c1nc(-c2ccc(C)c(F)c2)nc(NCc2ccco2)c1Cl [Compound 240-48, 5-Chloro-2-(3-fluoro-4-methylphenyl)-4-(furan-2-yl-methyl-amino)-6-methoxy-carbonylpyrimidine]
- pest or weed control at 1000 g/ha [1]: 100%
- pest or weed control at 1000 g/ha (Solanum nigrum (SOLNI) [2]): 50%
- pest or weed control at 1000 g/ha (Setaria faberi (SETFA) [3]): 0%
- pest or weed control at 1000 g/ha [4]: 0%
- pest or weed control at 1000 g/ha [5]: 0%
- pest or weed control at 1000 g/ha [6]: 0%
- pest or weed control at 1000 g/ha [7]: 100%
- pest or weed control at 1000 g/ha (Solanum nigrum (SOLNI) [8]): 30%
- pest or weed control at 1000 g/ha (Setaria faberi (SETFA) [9]): 10%
- pest or weed control at 1000 g/ha [10]: 0%
- pest or weed control at 1000 g/ha [11]: 20%
- pest or weed control at 1000 g/ha [12]: 70%

SMILES: COC(=O)c1nc(-c2cc(F)c(F)cc2F)nc(NCc2ccco2)c1Cl [Compound 241-48, 5-Chloro-4-(furan-2-ylmethylamino)-6-methoxycarbony-2-(2,4,5-trifluoro-phenyl)pyrimidine]
- pest or weed control at 1000 g/ha [1]: 80%
- pest or weed control at 1000 g/ha (Solanum nigrum (SOLNI) [2]): 0%
- pest or weed control at 1000 g/ha (Setaria faberi (SETFA) [3]): 0%
- pest or weed control at 1000 g/ha [4]: 0%
- pest or weed control at 1000 g/ha [5]: 0%
- pest or weed control at 1000 g/ha [6]: 10%
- pest or weed control at 1000 g/ha [7]: 80%
- pest or weed control at 1000 g/ha (Solanum nigrum (SOLNI) [8]): 50%
- pest or weed control at 1000 g/ha (Setaria faberi (SETFA) [9]): 10%
- pest or weed control at 1000 g/ha [10]: 10%
- pest or weed control at 1000 g/ha [11]: 0%
- pest or weed control at 1000 g/ha [12]: 60%
